Where a SMILES comes first, the peptide text is derived from it. [ ]: non-standard residue; d: D form. The star is where a group is joined. Hydrocinnamoyl(4-OSO3H) = O=C(CCc1ccc(OS(=O)(=O)O)cc1)*; Propanoyl(3-(4-F-phenyl)) = O=C(CCc1ccc(F)cc1)*; Propanoyl(3-(4-MeO-Ph)) = COc1ccc(CCC(=O)*)cc1; Propanoyl(3-(4-Cl-Ph)) = O=C(CCc1ccc(Cl)cc1)*; Hydrocinnamoyl(4-Me) = Cc1ccc(CCC(=O)*)cc1; Quinoline3carbonyl = O=C(c1cnc2ccccc2c1)*; X13 = O=C(c1ccc2cc(OS(=O)(=O)O)ccc2c1)*; X6 = O=C(/C=C\c1ccc([N+](=O)[O-])cc1)*; Propanoyl(3-cHex) = O=C(CCC1CCCCC1)*; X15 = O=C(/C=C\c1ccc(C(F)(F)F)cc1)*; X20 = CC(=O)Oc1ccc2cc(C(=O)*)ccc2c1; Hydrocinnamoyl = O=C(CCc1ccccc1)*; X17 = COc1ccc(/C=C\C(=O)*)c(OC)c1; NMeF = CN[C@@H](Cc1ccccc1)C(=O)O; X10 = O=C(/C=C\c1ccc(Cl)cc1Cl)*; X14 = O=C(c1cc2cc(O)ccc2[nH]1)*; X2 = O=C(c1cc2cc(Cl)ccc2[nH]1)*; X7 = CN(C)c1ccc(/C=C\C(=O)*)cc1; X8 = COc1ccc2[nH]c(C(=O)*)cc2c1; X1 = O=C(/C=C\c1ccc(O)c(O)c1)*; X12 = O=C(c1cnc2cccc(O)c2c1)*; X21 = O=C(/C=C\c1ccc(Br)cc1)*; X11 = O=C(/C=C\c1ccc(O)cc1)*; X18 = O=C(c1cc2ccccc2[nH]1)*; X3 = O=C(/C=C/c1ccc(O)cc1)*; X4 = O=C(/C=C\c1ccc(F)cc1)*; X16 = O=C(/C=C\c1ccccc1O)*; X19 = O=C(/C=C\c1ccccc1)*; X5 = O=C(CCc1cccc(O)c1)*; X9 = O=C(/C=C/c1cccs1)*; Boc = CC(C)(C)OC(=O)*
Assays:
[1] = biological target: T1, Cholecystokinin receptor type A (Cavia porcellus, UniProt Q63931); assay: Inhibition of specific binding of [125I]BH-CCK-8 in guinea pig pancreas.
T1 sequence (Q63931 whole entry): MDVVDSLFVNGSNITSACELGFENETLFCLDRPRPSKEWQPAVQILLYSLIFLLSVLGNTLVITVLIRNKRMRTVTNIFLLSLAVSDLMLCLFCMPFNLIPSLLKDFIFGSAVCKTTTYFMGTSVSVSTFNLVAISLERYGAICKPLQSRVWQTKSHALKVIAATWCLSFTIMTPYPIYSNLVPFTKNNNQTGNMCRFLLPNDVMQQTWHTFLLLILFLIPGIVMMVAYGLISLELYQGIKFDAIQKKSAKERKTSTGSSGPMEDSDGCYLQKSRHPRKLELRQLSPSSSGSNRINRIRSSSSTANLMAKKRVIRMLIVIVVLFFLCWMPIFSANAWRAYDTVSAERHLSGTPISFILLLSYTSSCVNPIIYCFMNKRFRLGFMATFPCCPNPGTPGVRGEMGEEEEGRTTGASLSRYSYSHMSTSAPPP

Cavia porcellus [2] = organism: Cavia porcellus; assay: Stimulation of amylase release in guinea pig pancreas; assay type: functional
Cavia porcellus [3] = organism: Cavia porcellus; assay: Hydrolysis of phosphoinositide (PI) relative to maximal response elicited by CCK-8 in guinea pig pancreas.; assay type: functional

Compound | IC50 [1] | EC50 (Cavia porcellus [2]) | Max (Cavia porcellus [3])
COc1ccc(CCC(=O)NCCCC[C@H](NC(=O)[C@H](Cc2c[nH]c3ccccc23)NC(=O)OC(C)(C)C)C(=O)N[C@@H](CC(=O)O)C(=O)N[C@@H](Cc2ccccc2)C(N)=O)cc1 (Boc-WK(Propanoyl(3-(4-MeO-Ph)))DF-NH2) | 140 nM | 74 nM | 70%
CC(C)(C)OC(=O)N[C@@H](Cc1c[nH]c2ccccc12)C(=O)N[C@@H](CCCCNC(=O)c1cnc2ccccc2c1)C(=O)N[C@@H](CC(=O)O)C(=O)N[C@@H](Cc1ccccc1)C(N)=O (Boc-WK(Quinoline3carbonyl)DF-NH2) | 33 nM | 39 nM | 46%
CC(C)(C)OC(=O)N[C@@H](Cc1c[nH]c2ccccc12)C(=O)N[C@@H](CCCCNC(=O)c1cc2cc(Cl)ccc2[nH]1)C(=O)N[C@@H](CC(=O)O)C(=O)N[C@@H](Cc1ccccc1)C(N)=O (Boc-WK(X2)DF-NH2) | 110 nM | 62 nM | 27%
CC(C)(C)OC(=O)N[C@@H](Cc1c[nH]c2ccccc12)C(=O)N[C@@H](CCCCNC(=O)/C=C\c1ccc(F)cc1)C(=O)N[C@@H](CC(=O)O)C(=O)N[C@@H](Cc1ccccc1)C(N)=O (Boc-WK(X4)DF-NH2) | 65 nM | 16 nM | 74%
CC(C)(C)OC(=O)N[C@@H](Cc1c[nH]c2ccccc12)C(=O)N[C@@H](CCCCNC(=O)/C=C\c1ccc([N+](=O)[O-])cc1)C(=O)N[C@@H](CC(=O)O)C(=O)N[C@@H](Cc1ccccc1)C(N)=O (Boc-WK(X6)DF-NH2) | 57 nM | 27 nM | 64%
CC(C)(C)OC(=O)N[C@@H](Cc1c[nH]c2ccccc12)C(=O)N[C@@H](CCCCNC(=O)c1cnc2cccc(O)c2c1)C(=O)N[C@@H](CC(=O)O)C(=O)N[C@@H](Cc1ccccc1)C(N)=O (Boc-WK(X12)DF-NH2) | 7.7 nM | 2.3 nM | 45%
CC(C)(C)OC(=O)N[C@@H](Cc1c[nH]c2ccccc12)C(=O)N[C@@H](CCCCNC(=O)c1ccc2cc(OS(=O)(=O)O)ccc2c1)C(=O)N[C@@H](CC(=O)O)C(=O)N[C@@H](Cc1ccccc1)C(N)=O (Boc-WK(X13)DF-NH2) | 2.9 nM | 3.5 nM | 49%
CC(C)(C)OC(=O)N[C@@H](Cc1c[nH]c2ccccc12)C(=O)N[C@@H](CCCCNC(=O)c1cc2cc(O)ccc2[nH]1)C(=O)N[C@@H](CC(=O)O)C(=O)N[C@@H](Cc1ccccc1)C(N)=O (Boc-WK(X14)DF-NH2) | 14 nM | 68 nM | 23%
CC(C)(C)OC(=O)N[C@@H](Cc1c[nH]c2ccccc12)C(=O)N[C@@H](CCCCNC(=O)/C=C\c1ccc(C(F)(F)F)cc1)C(=O)N[C@@H](CC(=O)O)C(=O)N[C@@H](Cc1ccccc1)C(N)=O (Boc-WK(X15)DF-NH2) | 220 nM | 55 nM | 60%
CC(C)(C)OC(=O)N[C@@H](Cc1c[nH]c2ccccc12)C(=O)N[C@@H](CCCCNC(=O)/C=C\c1ccccc1O)C(=O)N[C@@H](CC(=O)O)C(=O)N[C@@H](Cc1ccccc1)C(N)=O (Boc-WK(X16)DF-NH2) | 110 nM | 210 nM | 54%
CC(C)(C)OC(=O)N[C@@H](Cc1c[nH]c2ccccc12)C(=O)N[C@@H](CCCCNC(=O)c1cc2ccccc2[nH]1)C(=O)N[C@@H](CC(=O)O)C(=O)N[C@@H](Cc1ccccc1)C(N)=O (Boc-WK(X18)DF-NH2) | 39 nM | 20 nM | 18%
CC(C)(C)OC(=O)N[C@@H](Cc1c[nH]c2ccccc12)C(=O)N[C@@H](CCCCNC(=O)/C=C\c1ccccc1)C(=O)N[C@@H](CC(=O)O)C(=O)N[C@@H](Cc1ccccc1)C(N)=O (Boc-WK(X19)DF-NH2) | 55 nM | 30 nM | 52%
CC(=O)Oc1ccc2cc(C(=O)NCCCC[C@H](NC(=O)[C@H](Cc3c[nH]c4ccccc34)NC(=O)OC(C)(C)C)C(=O)N[C@@H](CC(=O)O)C(=O)N[C@@H](Cc3ccccc3)C(N)=O)ccc2c1 (Boc-WK(X20)DF-NH2) | 8 nM | 11 nM | 49%
CC(=O)Oc1ccc2cc(C(=O)NCCCC[C@H](NC(=O)[C@H](Cc3c[nH]c4ccccc34)NC(=O)OC(C)(C)C)C(=O)N[C@@H](CC(=O)O)C(=O)N(C)[C@@H](Cc3ccccc3)C(N)=O)ccc2c1 (Boc-WK(X20)D[NMeF]-NH2) | 3.4 nM | 29 nM | 58%

Further lines, with some results ahead:

IC50 [1] | EC50 (Cavia porcellus [2]) | Compound | Max (Cavia porcellus [3])
290 nM | 240 nM | Cc1ccc(CCC(=O)NCCCC[C@H](NC(=O)[C@H](Cc2c[nH]c3ccccc23)NC(=O)OC(C)(C)C)C(=O)N[C@@H](CC(=O)O)C(=O)N[C@@H](Cc2ccccc2)C(N)=O)cc1 (Boc-WK(Hydrocinnamoyl(4-Me))DF-NH2) | 62%
76 nM | 98 nM | CC(C)(C)OC(=O)N[C@@H](Cc1c[nH]c2ccccc12)C(=O)N[C@@H](CCCCNC(=O)CCc1ccc(OS(=O)(=O)O)cc1)C(=O)N[C@@H](CC(=O)O)C(=O)N[C@@H](Cc1ccccc1)C(N)=O (Boc-WK(Hydrocinnamoyl(4-OSO3H))DF-NH2) | 68%
310 nM | 850 nM | CC(C)(C)OC(=O)N[C@@H](Cc1c[nH]c2ccccc12)C(=O)N[C@@H](CCCCNC(=O)CCc1ccccc1)C(=O)N[C@@H](CC(=O)O)C(=O)N[C@@H](Cc1ccccc1)C(N)=O (Boc-WK(Hydrocinnamoyl)DF-NH2) | 49%
410 nM | 170 nM | CC(C)(C)OC(=O)N[C@@H](Cc1c[nH]c2ccccc12)C(=O)N[C@@H](CCCCNC(=O)CCc1ccc(Cl)cc1)C(=O)N[C@@H](CC(=O)O)C(=O)N[C@@H](Cc1ccccc1)C(N)=O (Boc-WK(Propanoyl(3-(4-Cl-Ph)))DF-NH2) | 51%
250 nM | 450 nM | CC(C)(C)OC(=O)N[C@@H](Cc1c[nH]c2ccccc12)C(=O)N[C@@H](CCCCNC(=O)CCc1ccc(F)cc1)C(=O)N[C@@H](CC(=O)O)C(=O)N[C@@H](Cc1ccccc1)C(N)=O (Boc-WK(Propanoyl(3-(4-F-phenyl)))DF-NH2) | 68%
310 nM | 30000 nM | CC(C)(C)OC(=O)N[C@@H](Cc1c[nH]c2ccccc12)C(=O)N[C@@H](CCCCNC(=O)CCC1CCCCC1)C(=O)N[C@@H](CC(=O)O)C(=O)N[C@@H](Cc1ccccc1)C(N)=O (Boc-WK(Propanoyl(3-cHex))DF-NH2) | 40%
33 nM | 45 nM | CC(C)(C)OC(=O)N[C@@H](Cc1c[nH]c2ccccc12)C(=O)N[C@@H](CCCCNC(=O)/C=C\c1ccc(O)c(O)c1)C(=O)N[C@@H](CC(=O)O)C(=O)N[C@@H](Cc1ccccc1)C(N)=O (Boc-WK(X1)DF-NH2) | 66%
[…] | 3 nM | CN(C(=O)[C@H](CC(=O)O)NC(=O)[C@H](CCCCNC(=O)/C=C/c1ccc(O)cc1)NC(=O)[C@H](Cc1c[nH]c2ccccc12)NC(=O)OC(C)(C)C)[C@@H](Cc1ccccc1)C(N)=O (Boc-WK(X3)D[NMeF]-NH2) | 76%
400 nM | 160 nM | CC(C)(C)OC(=O)N[C@@H](Cc1c[nH]c2ccccc12)C(=O)N[C@@H](CCCCNC(=O)CCc1cccc(O)c1)C(=O)N[C@@H](CC(=O)O)C(=O)N[C@@H](Cc1ccccc1)C(N)=O (Boc-WK(X5)DF-NH2) | 46%
120 nM | 17 nM | CN(C)c1ccc(/C=C\C(=O)NCCCC[C@H](NC(=O)[C@H](Cc2c[nH]c3ccccc23)NC(=O)OC(C)(C)C)C(=O)N[C@@H](CC(=O)O)C(=O)N[C@@H](Cc2ccccc2)C(N)=O)cc1 (Boc-WK(X7)DF-NH2) | 49%
52 nM | 16 nM | COc1ccc2[nH]c(C(=O)NCCCC[C@H](NC(=O)[C@H](Cc3c[nH]c4ccccc34)NC(=O)OC(C)(C)C)C(=O)N[C@@H](CC(=O)O)C(=O)N[C@@H](Cc3ccccc3)C(N)=O)cc2c1 (Boc-WK(X8)DF-NH2) | 21%
50 nM | 20 nM | CC(C)(C)OC(=O)N[C@@H](Cc1c[nH]c2ccccc12)C(=O)N[C@@H](CCCCNC(=O)/C=C/c1cccs1)C(=O)N[C@@H](CC(=O)O)C(=O)N[C@@H](Cc1ccccc1)C(N)=O (Boc-WK(X9)DF-NH2) | 66%
130 nM | 90 nM | CC(C)(C)OC(=O)N[C@@H](Cc1c[nH]c2ccccc12)C(=O)N[C@@H](CCCCNC(=O)/C=C\c1ccc(Cl)cc1Cl)C(=O)N[C@@H](CC(=O)O)C(=O)N[C@@H](Cc1ccccc1)C(N)=O (Boc-WK(X10)DF-NH2) | 86%
16 nM | 3.9 nM | CC(C)(C)OC(=O)N[C@@H](Cc1c[nH]c2ccccc12)C(=O)N[C@@H](CCCCNC(=O)/C=C\c1ccc(O)cc1)C(=O)N[C@@H](CC(=O)O)C(=O)N[C@@H](Cc1ccccc1)C(N)=O (Boc-WK(X11)DF-NH2) | 76%
38 nM | 14 nM | COc1ccc(/C=C\C(=O)NCCCC[C@H](NC(=O)[C@H](Cc2c[nH]c3ccccc23)NC(=O)OC(C)(C)C)C(=O)N[C@@H](CC(=O)O)C(=O)N[C@@H](Cc2ccccc2)C(N)=O)c(OC)c1 (Boc-WK(X17)DF-NH2) | 82%
140 nM | 38 nM | CC(C)(C)OC(=O)N[C@@H](Cc1c[nH]c2ccccc12)C(=O)N[C@@H](CCCCNC(=O)/C=C\c1ccc(Br)cc1)C(=O)N[C@@H](CC(=O)O)C(=O)N[C@@H](Cc1ccccc1)C(N)=O (Boc-WK(X21)DF-NH2) | 72%

From ChEMBL document CHEMBL1126058, “Development of potent and selective CCK-A receptor agonists from Boc-CCK-4: tetrapeptides containing Lys(N epsilon)-amide residues” (J Med Chem, 1992)
